≈ marks a conversion by molar mass, not a printed value. Square brackets hold non-standard residues; d marks the D form. Peptide text beside a SMILES is read from it. Bip = N[C@@H](Cc1ccc(-c2ccccc2)cc1)C(=O)O; hPhe = N[C@@H](CCc1ccccc1)C(=O)O; Ahp(2) = CCCCC[C@H](N)C(=O)O; Dap = NC[C@H](N)C(=O)O
Tests used:
K. pneumoniae = format: cell-based, Klebsiella pneumoniae; details: Table 8
Description: (§1) Bacterial growth conditions. LB or Mueller Hinton II cation-adjusted broth (MHB II, BBL 212322) was prepared according to manufacturer's instructions and supplemented with arabinose at 0.02% for overnight growth or at indicated concentrations in the description of the figures. Bacterial cultures were grown at 37° C. When appropriate, media was supplemented with kanamycin (50 μg/mL), carbenicillin (50 μg/mL), chloramphenicol (12.5 or 25 μg/mL), hygromycin (200 μg/mL), and/or gentamicin (10 μg/mL).
(§2) Peptide sensitivity and MIC assays. Lyophilized peptides (Smartox Biotechnology, CPC Scientific. ABclonal) were solubilized to 10 mM in Tris buffer, pH 8, prior to making a 2-fold dilution series in MHBII cation adjusted broth with highest final assay concentration of 400-800 μM. Bacteria were grown to log phase and added to final OD600˜0.001. The final EDTA concentration was 0.5 mM for E. coli strains and 0.125 mM for USA300. The final volume of 10 μL/well in a 384 well black, clear bottom plate (Corning) was spun <1 min at <250×g and then incubated at 37° C. After 4 h, an equal volume (10 μL) of BacTiter-Glo™ (Promega) was added to each well and luminescence was read after 5 min on an EnVision plate reader (PerkinElmer). To measure the minimal inhibitory concentrations (MICs), bacteria from fresh overnight plates or log phase cultures were diluted with or without EDTA and peptides as described above to final OD600˜0.0002. Plates were incubated at 37° C. for 20 h before measuring OD600 with an EnVision plate reader.

A. baumannii = format: cell-based, Acinetobacter baumannii; details: Table 8
Description: as §1, §2

P. aeruginosa = format: cell-based, Pseudomonas aeruginosa; details: Table 8
Description: as §1, §2

E. coli BW25113 = format: cell-based, Escherichia coli; details: Table 8
Description: as §1, §2

E. coli imp4213 = assay: MIC assay, E. coli imp4213; format: cell-based, Escherichia coli; details: Table 7
Description: as §1, §2

S. aureus USA300 = assay: MIC assay, S. aureus USA300; format: cell-based, Staphylococcus aureus; details: Table 7
Description: as §1, §2

| Compound | MIC K. pneumoniae (K. pneumoniae) [µM] | MIC A. baumannii (A. baumannii) [µM] | MIC R. aeruginosa (P. aeruginosa) [µM] | MIC E. coli BW25113 (E. coli BW25113) [µM] | MIC E. coli imp4213 (E. coli imp4213) [µM] | MIC S. aureus USA300 (S. aureus USA300) [µM] |
| --- | --- | --- | --- | --- | --- | --- |
| CSCC[C@H](NC(=O)[C@@H]1CCCN1C(=O)[C@H](Cc1ccc(O)cc1)NC(C)=O)C(=O)N[C@@H](CN)C(=O)N[C@@H](Cc1ccccc1)C(=O)N[C@@H](CCCNC(=N)N)C(=O)N[C@@H](CCCNC(=N)N)C(=O)N[C@@H](Cc1ccccc1)C(=O)N[C@@H](CC(C)C)C(=O)N[C@@H](CCC(=O)O)C(=O)N[C@@H](CCCCN)C(=O)N[C@@H](Cc1c[nH]c2ccccc12)C(=O)NCC(=O)N[C@@H](CC(C)C)C(=O)N[C@@H](CC(C)C)C(=O)N[C@@H](CCCNC(=N)N)C(N)=O [compound 69] (Ac-YPM[Dap]FRRFLEKWGLLR-NH2) | 100 (≈ 214 µg/mL) | 12.5 (≈ 26.7 µg/mL) | 200 (≈ 428 µg/mL) | 50 (≈ 107 µg/mL) | – | – |
| CCCCC[C@H](NC(=O)[C@@H](NC(=O)[C@H](CCSC)NC(=O)[C@@H]1CCCN1C(=O)[C@H](Cc1ccc(O)cc1)NC(C)=O)[C@@H](C)O)C(=O)N[C@@H](CCCNC(=N)N)C(=O)N[C@@H](CCCNC(=N)N)C(=O)N[C@@H](Cc1ccccc1)C(=O)N[C@@H](CC(C)C)C(=O)N[C@@H](CCC(=O)O)C(=O)N[C@@H](CCCCN)C(=O)N[C@@H](Cc1c[nH]c2ccccc12)C(=O)NCC(=O)N[C@@H](CC(C)C)C(=O)N[C@@H](CC(C)C)C(=O)N[C@@H](CCCNC(=N)N)C(N)=O [compound 71] (Ac-YPMT[Ahp(2)]RRFLEKWGLLR-NH2) | 50 (≈ 107 µg/mL) | <6.25 | 50 (≈ 107 µg/mL) | 100 (≈ 213 µg/mL) | – | – |
| CSCC[C@H](NC(=O)[C@H](CN)NC(=O)[C@H](CCSC)NC(=O)[C@@H]1CCCN1C(=O)[C@H](Cc1ccc(O)cc1)NC(C)=O)C(=O)N[C@@H](CCCNC(=N)N)C(=O)N[C@@H](CCCNC(=N)N)C(=O)N[C@@H](Cc1ccccc1)C(=O)N[C@@H](CC(C)C)C(=O)N[C@@H](CCC(=O)O)C(=O)N[C@@H](CCCCN)C(=O)N[C@@H](Cc1c[nH]c2ccccc12)C(=O)NCC(=O)N[C@@H](CC(C)C)C(=O)N[C@@H](CC(C)C)C(=O)N[C@@H](CCCNC(=N)N)C(N)=O [compound 78] (Ac-YPM[Dap]MRRFLEKWGLLR-NH2) | 25.0 (≈ 53.1 µg/mL) | 25.0 (≈ 53.1 µg/mL) | 100.0 (≈ 212 µg/mL) | 12.5 (≈ 26.5 µg/mL) | – | – |
| CSCC[C@H](NC(=O)[C@@H]1CCCN1C(=O)[C@H](Cc1ccc(O)cc1)NC(C)=O)C(=O)N[C@@H](CN)C(=O)N[C@@H](C)C(=O)N[C@@H](CCCNC(=N)N)C(=O)N[C@@H](CCCNC(=N)N)C(=O)N[C@@H](Cc1ccc(-c2ccccc2)cc1)C(=O)N[C@@H](CC(C)C)C(=O)N[C@@H](CCC(=O)O)C(=O)N[C@@H](CCCCN)C(=O)N[C@@H](Cc1c[nH]c2ccccc12)C(=O)NCC(=O)N[C@@H](CC(C)C)C(=O)N[C@@H](CC(C)C)C(=O)N[C@@H](CCCNC(=N)N)C(N)=O [compound 80] (Ac-YPM[Dap]ARR[Bip]LEKWGLLR-NH2) | 12.5 (≈ 26.7 µg/mL) | 12.5 (≈ 26.7 µg/mL) | 25.0 (≈ 53.5 µg/mL) | 12.5 (≈ 26.7 µg/mL) | – | – |
| CSCC[C@H](NC(=O)[C@H](CN)NC(=O)[C@H](CCSC)NC(=O)[C@@H]1CCCN1C(=O)[C@H](Cc1ccc(O)cc1)NC(C)=O)C(=O)N[C@@H](CCCNC(=N)N)C(=O)N[C@@H](CCCNC(=N)N)C(=O)N[C@@H](Cc1ccc(-c2ccccc2)cc1)C(=O)N[C@@H](CC(C)C)C(=O)N[C@@H](CCC(=O)O)C(=O)N[C@@H](CCCCN)C(=O)N[C@@H](Cc1c[nH]c2ccccc12)C(=O)NCC(=O)N[C@@H](CC(C)C)C(=O)N[C@@H](CC(C)C)C(=O)N[C@@H](CCCNC(=N)N)C(N)=O [compound 82] (Ac-YPM[Dap]MRR[Bip]LEKWGLLR-NH2) | 50.0 (≈ 110 µg/mL) | 12.5 (≈ 27.5 µg/mL) | 50.0 (≈ 110 µg/mL) | 100.0 (≈ 220 µg/mL) | – | – |
| CSCC[C@H](NC(=O)[C@@H]1CCCN1C(=O)[C@H](Cc1ccc(O)cc1)NC(C)=O)C(=O)N[C@H](C(=O)N[C@@H](C)C(=O)N[C@@H](CCCNC(=N)N)C(=O)N[C@@H](CCCNC(=N)N)C(=O)N[C@@H](CCc1ccccc1)C(=O)N[C@@H](CC(C)C)C(=O)N[C@@H](CCC(=O)O)C(=O)N[C@@H](CCCCN)C(=O)N[C@@H](Cc1c[nH]c2ccccc12)C(=O)NCC(=O)N[C@@H](CC(C)C)C(=O)N[C@@H](CC(C)C)C(=O)N[C@@H](CCCNC(=N)N)C(N)=O)[C@@H](C)O [compound 84] (Ac-YPMTARR[hPhe]LEKWGLLR-NH2) | 50.0 (≈ 105 µg/mL) | 25.0 (≈ 52.3 µg/mL) | 200.0 (≈ 419 µg/mL) | 50.0 (≈ 105 µg/mL) | – | – |
| Ac-KPMTARRFLEKWGLLR-NH2 [compound 61] | – | 40 | 400 | – | 12.5 | – |
| Ac-YPMAARRFLEKHGL-NH2 [compound 25] | – | – | – | – | 800 | >800 |
| Ac-YPMSARRFLAKWGLLR-NH2 [compound 15] | – | – | – | – | <12.5 | 800 |
| Ac-YPMSARRFLEKHGL-NH2 [compound 26] | – | – | – | – | 800 | >800 |
| Ac-YPMTAKRFLEKHGL-NH2 [compound 30] | – | – | – | – | 800 | >800 |
| Ac-YPMTARAFLEKHGL-NH2 [compound 31] | – | – | – | – | 800 | >800 |
| Ac-YPMTARHFLEKHGL-NH2 [compound 33] | – | – | – | – | 800 | >800 |
| Ac-YPMTARKFLEKHGL-NH2 [compound 32] | – | – | – | – | 100 | >800 |
| Ac-YPMTARRFLAKHGL-NH2 [compound 36] | – | – | – | – | 100 | >800 |
| Ac-YPMTARRFLEAHGL-NH2 [compound 39] | – | – | – | – | 200 | >800 |

| Compound | MIC K. pneumoniae (K. pneumoniae) [µM] | MIC A. baumannii (A. baumannii) [µM] | MIC R. aeruginosa (P. aeruginosa) [µM] | MIC E. coli BW25113 (E. coli BW25113) [µM] | MIC E. coli imp4213 (E. coli imp4213) [µM] | MIC S. aureus USA300 (S. aureus USA300) [µM] |
| --- | --- | --- | --- | --- | --- | --- |
| Ac-YPMTARRFLEHHGL-NH2 [compound 40] | – | – | – | – | 400 | >800 |
| Ac-YPMTARRFLEKAGL-NH2 [compound 42] | – | – | – | – | 800 | >800 |
| Ac-YPMTARRFLEKHGW-NH2 [compound 47] | – | – | – | – | 200 | >800 |
| Ac-YPMTARRFLEKKGL-NH2 [compound 46] | – | – | – | – | 100 | >800 |
| Ac-YPMTARRFLEKRGL-NH2 [compound 45] | – | – | – | – | 100 | >800 |
| Ac-YPMTARRFLEKWGLLR-NH2 [compound 14] | – | – | – | – | 25 | 800 |
| Ac-YPMTARRFLEKYGL-NH2 [compound 43] | – | – | – | – | 100 | >800 |
| Ac-YPMTARRFLERHGL-NH2 [compound 41] | – | – | – | – | 100 | >800 |
| Ac-YPMTARRFLRKHGL-NH2 [compound 38] | – | – | – | – | 100 | >800 |
| Ac-YPMTARRFLSKHGL-NH2 [compound 37] | – | – | – | – | 400 | >800 |
| Ac-YPMTARRFWEKHGL-NH2 [compound 35] | – | – | – | – | 400 | >800 |
| Ac-YPMTARRWLEKHGL-NH2 [compound 34] | – | – | – | – | 25 | >800 |
| Ac-YPMTRRRFLEKHGL-NH2 [compound 29] | – | – | – | – | 800 | >800 |
| Ac-YPMTWRRFLEKHGL-NH2 [compound 28] | – | – | – | – | 50 | >800 |
| Ac-YPMTYRRFLEKHGL-NH2 [compound 27] | – | – | – | – | 400 | >800 |
| Ac-YPWTARRFLEKHGL-NH2 [compound 24] | – | – | – | – | 400 | >800 |

— patent US20220135622A1, “ANTIBACTERIAL PEPTIDES AND METHODS OF USE” (priority 2019, published 2022)
